# Read-outs that look alike come from different tables or passages of the source.
# Assays:
# [1] = test system: Stagonospora nodorum (Leptosphaeria nodorum—LEPTNO); assay: In vitro fungal growth inhibition, Stagonospora nodorum (LEPTNO); assay type: cell-based; settings: Leptosphaeria, read-out: LEPTNO in vitro Growth Inhibition
# [2] = test system: Phytophthora infestans (PHYTIN); assay: microbe, parasite or virus in culture; assay type: cell-based; settings: Phytophthora infestans, read-out: PHYTIN in vitro Growth Inhibition
# [3] = test system: Puccinia recondita—PUCCRT; assay: Brown Rust of Wheat, in vivo whole plant, 24 Hour Protectant
# [4] = test system: Magnaporthe grisea (Pyricularia oryzae—PYRIOR); assay: microbe, parasite or virus in culture; assay type: cell-based; settings: Pyricularia oryzae, read-out: PYRIOR in vitro Growth Inhibition
# Ustilago maydis (USTIMA) = assay: microbe, parasite or virus in culture; assay type: cell-based; settings: Mycosarcoma maydis, read-out: USTIMA in vitro Growth Inhibition
# Septoria tritici—SEPTTR = assay: Leaf Blotch of Wheat, in vivo whole plant, 24 Hour Protectant
# [5] = test system: Leptosphaeria nodorum—LEPTNO; assay: Glume Blotch of Wheat, in vivo whole plant, 24 Hour Protectant; settings: for pest or weed control at 100 ppm: Leptosphaeria, read-out: LEPTNO in vivo 1 Day Protectant
# Erysiphe graminis—ERYSGT = assay: Powdery Mildew of Wheat, in vivo whole plant, 24 Hour Protectant; settings: for pest or weed control at 100 ppm: Erysiphe, read-out: ERYSGT in vivo 1 Day Protectant
# [6] = test system: Mycosphaerella graminicola (Septoria tritici—SEPTTR); assay: In vitro fungal growth inhibition, Mycosphaerella graminicola (SEPTTR); assay type: cell-based; settings: Zymoseptoria tritici, read-out: SEPTTR in vitro Growth Inhibition
# [7] = test system: Rhizoctonia solani (RHIZSO); assay: microbe, parasite or virus in culture; assay type: cell-based; settings: Rhizoctonia solani, read-out: RHIZSO in vitro Growth Inhibition
# [8] = test system: Phytophthora infestans—PHYTIN; assay: whole plant or invertebrate; assay type: in vivo; settings: Phytophthora, in Solanum lycopersicum, 24 h, read-out: PHYTIN in vivo 1 Day Protectant
# [9] = 100 ppm spray, wheat, 24 hour protectant, % control of fungal infection vs untreated plants
Compound,inhibition at 25 ppm [2],inhibition at 25 ppm [4],inhibition at 25 ppm (Ustilago maydis (USTIMA)),inhibition at 25 ppm [7],pest or weed control at 100 ppm [8],inhibition at 25 ppm ([1]; 25 ppm in growth medium),"PUCCRT in vivo 1 Day Protectant [3, 9]",SEPTTR in vivo 1 Day Protectant (Septoria tritici—SEPTTR; [9]),"LEPTNO in vivo 1 Day Protectant [5, 9]",inhibition at 25 ppm ([6]; 25 ppm in growth medium),pest or weed control at 100 ppm (Erysiphe graminis—ERYSGT; [9]),other results
COc1ccnc(C(=O)N[C@H]2COC(=O)[C@H](Cc3ccccc3)[C@@H](OC(=O)C(C)C)[C@H](C)OC2=O)c1OC(=O)Cc1ccccc1 [Compound 648],< 80%,> 80%,< 80%,< 80%,< 25%,–,–,–,–,–,–,inhibition at 25 ppm [1]: < 80%; PUCCRT in vivo 1 Day Protectant ([3]; in vivo): + +; SEPTTR in vivo 1 Day Protectant (Septoria tritici—SEPTTR; in vivo): + +; LEPTNO in vivo 1 Day Protectant ([5]; in vivo): + +; ERYSGT in vivo 1 Day Protectant (Erysiphe graminis—ERYSGT; in vivo): + +; inhibition at 25 ppm [6]: < 80%
COc1ccnc(C(=O)N[C@H]2COC(=O)[C@H](Cc3ccccc3)[C@@H](OC(=O)C(C)C)[C@H](C)OC2=O)c1OC(=O)CCc1ccccc1 [Compound 650],< 80%,> 80%,< 80%,< 80%,< 25%,–,–,–,–,–,–,inhibition at 25 ppm [1]: > 80%; PUCCRT in vivo 1 Day Protectant ([3]; in vivo): + +; SEPTTR in vivo 1 Day Protectant (Septoria tritici—SEPTTR; in vivo): + +; LEPTNO in vivo 1 Day Protectant ([5]; in vivo): + +; pest or weed control at 100 ppm (Erysiphe graminis—ERYSGT; 24 h): < 25%; inhibition at 25 ppm [6]: < 80%
COCC(=O)Oc1c(OC)ccnc1C(=O)N[C@H]1COC(=O)[C@H](Cc2ccccc2)[C@@H](OC(=O)C(C)C)[C@H](C)OC1=O [Compound 653],< 80%,< 80%,< 80%,< 80%,< 25%,> 80%,+ +,+ +,+ +,> 80%,–,ERYSGT in vivo 1 Day Protectant (Erysiphe graminis—ERYSGT; [9]): + +
COc1ccnc(C(=O)N[C@H]2COC(=O)[C@H](Cc3ccccc3)[C@@H](OC(=O)C(C)C)[C@H](C)OC2=O)c1OC(=O)COCc1ccccc1 [Compound 656],< 80%,> 80%,< 80%,< 80%,< 25%,> 80%,+ +,+ +,+ +,< 80%,< 25%,–
COc1ccnc(C(=O)N[C@H]2COC(=O)[C@H](Cc3ccccc3)[C@@H](OC(=O)C(C)C)[C@H](C)OC2=O)c1OC(=O)c1cnc(Cl)c(Cl)c1 [Compound 670],> 80%,< 80%,< 80%,< 80%,< 25%,> 80%,+ +,+ +,+ +,< 80%,< 25%,–
COc1ccnc(C(=O)N[C@H]2COC(=O)[C@H](Cc3ccccc3)[C@@H](OC(=O)C(C)C)[C@H](C)OC2=O)c1OC(=O)c1ccco1 [Compound 673],< 80%,< 80%,< 80%,< 80%,< 25%,< 80%,+ +,+ +,+ +,< 80%,< 25%,–
COc1ccnc(C(=O)N[C@H]2COC(=O)[C@H](Cc3ccccc3)[C@@H](OC(=O)C(C)C)[C@H](C)OC2=O)c1OC(=O)c1cccs1 [Compound 674],< 80%,< 80%,< 80%,< 80%,< 25%,> 80%,+ +,+ +,–,> 80%,< 25%,"pest or weed control at 100 ppm [5, 9]: 25 to 74%"
CCOC(=O)Oc1c(OC)ccnc1C(=O)N[C@H]1COC(=O)[C@H](Cc2ccccc2)[C@@H](OC(=O)C(C)C)[C@H](C)OC1=O [Compound 679],< 80%,> 80%,< 80%,> 80%,< 25%,< 80%,+ +,+ +,+ +,< 80%,–,ERYSGT in vivo 1 Day Protectant (Erysiphe graminis—ERYSGT; [9]): + +
COc1ccnc(C(=O)N[C@H]2COC(=O)[C@H](Cc3ccccc3)[C@@H](OC(=O)C(C)C)[C@H](C)OC2=O)c1OC(=O)O[C@@H]1C[C@H](C)CC[C@H]1C(C)C [Compound 690],< 80%,< 80%,< 80%,< 80%,< 25%,< 80%,–,+ +,–,< 80%,< 25%,"pest or weed control at 100 ppm ([3]; Puccinia, 100 ppm spray, wheat, 24 hour protectant, % control of fungal infection vs untreated plants, read-out: PUCCRT in vivo 1 Day Protectant): 25 to 74%; pest or weed control at 100 ppm [5, 9]: 25 to 74%"
COc1ccnc(C(=O)N[C@H]2COC(=O)[C@H](Cc3ccccc3)[C@@H](OC(=O)C(C)C)[C@H](C)OC2=O)c1OC(=O)OCCBr [Compound 692],< 80%,> 80%,< 80%,< 80%,< 25%,> 80%,+ +,+ +,+ +,> 80%,< 25%,–
CCC(C)C(=O)O[C@H]1[C@H](C)OC(=O)[C@@H](NC(=O)c2nccc(OC)c2OC(C)=O)COC(=O)[C@@H]1Cc1ccccc1 (stereo partly drawn) [Compound 701],< 80%,< 80%,< 80%,< 80%,< 25%,> 80%,+ +,+ +,+ +,> 80%,–,ERYSGT in vivo 1 Day Protectant (Erysiphe graminis—ERYSGT; [9]): + +
COc1ccnc(C(=O)N[C@H]2COC(=O)[C@H](Cc3ccccc3)[C@@H](OC(=O)CC(C)C)[C@H](C)OC2=O)c1OC(C)=O [Compound 702],< 80%,< 80%,< 80%,< 80%,< 25%,> 80%,+ +,+ +,+ +,< 80%,< 25%,–
